What was measured:
[1] = excess molar enthalpy (molar enthalpy of mixing); xn = mol fraction of the nth substance listed; conditions: 308.15 K, 101 kPa, Liquid, 2-drop calorimeter (CSC 4600_
[2] = xn = mol fraction of the nth substance listed; conditions: 101 kPa, Liquid; for mass density: Vibrating tube method

Cc1ccccn1 [2-methylpyridine] + C1CCOCC1
[1]
Conditions	excess molar enthalpy [kcal/mol]
x2 = 0.0511	0.00394
x2 = 0.1102	0.00915
x2 = 0.1773	0.016
x2 = 0.2121	0.0196
x2 = 0.2683	0.0253
x2 = 0.3182	0.03
x2 = 0.3905	0.0356
x2 = 0.4304	0.0391
x2 = 0.4822	0.0413
x2 = 0.5216	0.0437
x2 = 0.5755	0.0442
x2 = 0.6213	0.0442
x2 = 0.6786	0.0428
x2 = 0.7288	0.0409
x2 = 0.7754	0.0373
x2 = 0.8216	0.0323
x2 = 0.8852	0.0232
x2 = 0.9217	0.0168

[2]
Conditions	mass density, 298.15 K [kg/m3]	mass density, 303.15 K [kg/m3]	mass density, 308.15 K [kg/m3]	speed of sound, 298.15 K [m/s]	speed of sound, 303.15 K [m/s]	speed of sound, 308.15 K [m/s]
x2 = 0	939.802	935.117	930.414	1380.1	1361	1339.9
x2 = 0.0367	937.731	933.031	928.307	1376.6	1357.6	1336.4
x2 = 0.0731	935.665	930.947	926.208	1373	1354.1	1332.8
x2 = 0.1274	932.552	927.811	923.053	1367.7	1348.5	1327.2
x2 = 0.1751	929.795	925.036	920.257	1363	1343.5	1322
x2 = 0.2373	926.162	921.378	916.581	1356.6	1336.7	1315.2
x2 = 0.2752	923.926	919.13	914.323	1352.6	1332.5	1310.9
x2 = 0.3262	920.901	916.081	911.259	1347.2	1326.7	1305.1
x2 = 0.3817	917.578	912.735	907.895	1341.2	1320.4	1298.7
x2 = 0.4248	914.974	910.121	905.265	1336.5	1315.4	1293.7
x2 = 0.4916	910.915	906.032	901.153	1328.9	1307.5	1285.8
x2 = 0.5525	907.178	902.268	897.366	1322	1300.4	1278.5
x2 = 0.6147	903.336	898.401	893.468	1314.9	1293	1271.1
x2 = 0.6674	900.064	895.101	890.14	1308.7	1286.8	1264.8
x2 = 0.7018	897.916	892.937	887.961	1304.7	1282.7	1260.7
x2 = 0.7736	893.419	888.402	883.383	1296.3	1274.2	1252
x2 = 0.8219	890.381	885.337	880.292	1290.6	1268.4	1246.2
x2 = 0.8673	887.518	882.452	877.377	1285.3	1262.9	1240.7
x2 = 0.9428	882.751	877.641	872.516	1276.5	1253.8	1231.5

Cc1cccnc1 [3-methylpyridine] + C1CCOCC1
[1]
Conditions	excess molar enthalpy [kcal/mol]
x2 = 0.0532	0.0059
x2 = 0.1118	0.0118
x2 = 0.1802	0.0181
x2 = 0.2238	0.0215
x2 = 0.2732	0.0248
x2 = 0.3311	0.0277
x2 = 0.3913	0.0298
x2 = 0.4461	0.0302
x2 = 0.4803	0.0304
x2 = 0.5365	0.0299
x2 = 0.5868	0.0293
x2 = 0.6344	0.0276
x2 = 0.6802	0.0249
x2 = 0.7355	0.0221
x2 = 0.7832	0.0184
x2 = 0.8326	0.0149
x2 = 0.8914	0.00963
x2 = 0.9336	0.00607

[2]
Conditions	mass density, 298.15 K [kg/m3]	mass density, 303.15 K [kg/m3]	mass density, 308.15 K [kg/m3]	speed of sound, 298.15 K [m/s]	speed of sound, 303.15 K [m/s]	speed of sound, 308.15 K [m/s]
x2 = 0	952.002	947.449	942.831	1424	1404	1384
x2 = 0.0562	948.099	943.521	938.854	1415.9	1395.6	1375.6
x2 = 0.0848	946.113	941.519	936.827	1411.8	1391.4	1371.4
x2 = 0.1357	942.576	937.954	933.219	1404.5	1383.9	1363.8
x2 = 0.1826	939.306	934.651	929.891	1397.8	1377.1	1356.8
x2 = 0.2461	934.857	930.166	925.361	1388.8	1367.8	1347.2
x2 = 0.2833	932.236	927.522	922.691	1383.3	1362.3	1341.5
x2 = 0.3345	928.61	923.861	919.004	1375.8	1354.5	1333.6
x2 = 0.3813	925.271	920.499	915.608	1368.6	1347.3	1326.2
x2 = 0.4262	922.049	917.247	912.336	1361.8	1340.3	1319.2
x2 = 0.4827	917.964	913.129	908.186	1353	1331.2	1310.1
x2 = 0.5378	913.951	909.085	904.106	1344.3	1322.4	1301.2
x2 = 0.5924	909.933	905.038	900.027	1335.5	1313.3	1292.3
x2 = 0.6382	906.545	901.626	896.591	1328	1305.7	1284.7
x2 = 0.6982	902.068	897.114	892.051	1318.1	1295.6	1274.7
x2 = 0.7568	897.664	892.682	887.584	1308.6	1285.8	1264.9
x2 = 0.8138	893.349	888.335	883.218	1299.2	1276.4	1255.4
x2 = 0.8825	888.124	883.068	877.926	1288.2	1265.1	1243.9
x2 = 0.9321	884.334	879.246	874.092	1280.3	1257.2	1235.7

— the NIST ThermoML archive (doi:10.1016/j.tca.2011.02.002)
